Like-named read-outs stand apart in the source and are kept apart here.
Tests used:
[1] = test system: A549/OPNluc cells; assay: WST assay for cell growth / cell viability; assay type: cell-based, human; conditions: 48±4 hours, WST-1, read-out: IC50 (concentration for 50% inhibition of cell growth)
From the text: (§1) A reporter vector pOPN1-luc obtained by the insertion of a human OPN promoter sequence (−765 to 23) into the multiple cloning site of pGL-3 basic vector (Promega) expresses luciferase when transfected into animal cells. The pOPN1-luc was transfected into a human non-small cell lung cancer-derived cell line A549 together with pPUR (Clontech) that expresses a puromycin resistance gene (puromycin-N-acetyl-transferase gene), and then cells expressing luciferase which could grow a puromycin-supplemented medium were selected. The selected cells were named “A549/OPNluc cells” and used for observation of luciferase expression inhibitory effect under control of OPN promoter, as described below.
(§2) A test compound was added to a culture containing A549/OPNluc cells to observe its influence on the amount of luciferase expressed in the cells. Here, it can be considered that when the test compound has a cell cytotoxity or cell growth inhibitory effect, the total expression level of luciferase is reduced due to a reduction in the number of living cells that depends on the concentration of the test compound, and therefore the luciferase expression inhibitory effect of the test compound under control of OPN promoter cannot be properly evaluated. For this reason, WST assay for quantification of cell proliferation ability or cell viability by colorimetric measurement was firstly performed to determine IC50 (concentration for 50% inhibition of cell growth) of the test compound for cell growth. Then, luciferase activity measurement was performed to determine EC50 (concentration for 50% inhibition of luciferase expression) of the test compound for luciferase expression under control of OPN promoter.
A549/OPNluc cells were suspended in DMEM medium containing 10% fetal calf serum (FCS) and 1% penicillin/streptomycin (P/S) at 3×10^4 cells/mL to obtain a cell suspension, and then the cell suspension was dispensed into each well of a 96-well plate in an amount of 100 μL. In order to perform the assay in triplicate, wells were prepared for a control group, and 3 wells were prepared for each test compound-treated group at each concentration. After the dispensation, the 96-well plate was incubated in a CO2 incubator (at 37° C. and 5% CO2) for 24±4 hours.
The present compound was dissolved in dimethylsulfoxide (DMSO) to obtain a 50 mmol/L solution, and the compound solution was stored at −80° C. The compound solution was diluted with DMSO in 2-fold dilution series (usually, in the range of 0.31 mmol/L to 20 mmol/L) to prepare test compound solutions whose concentration varied by two fold for WST assay.
Each solution of only DMSO (control) and the diluted test compound (sample) was dispensed into each well containing the cell suspension in an amount of 0.5 μL (200-fold dilution). The solution in each well was mixed with a vortex mixer, and then the 96-well plate was incubated in a CO2 incubator (at 37° C. and 5% CO2) for 48±4 hours. Then, Premix WST-1 Reagent (TAKARA BIO INC.) was added in an amount of 10 μL to each well. The solution in each well was mixed with a vortex mixer, and then the 96-well plate was incubated at 37° C. and 5% CO2. After 60 minutes or 120 minutes, the absorbance values (450 nm) were measured with a microplate reader (Bio-Rad; Benchmark or Thermo Scientific; Varioskan Flash).
The absorbance values of the control wells and the sample wells at each concentration were input into an Excel file to determine the percentages of absorbance values of the sample wells at each concentration with to the average absorbance value of the control wells. From the determined values, a fitted curve was determined by the method of least squares to calculate IC50.

[2] = test system: human OPN promoter (pOPN1-luc) in A549/OPNluc cells; assay: Luciferase assay: luciferase expression under control of OPN promoter; assay type: cell-based
From the text: as §1, §2
The same steps as in the above-mentioned WST assay were performed in which each solution of only DMSO (control) or the diluted test compound (sample) was added in an amount of 0.5 μL to each well containing the cell suspension to achieve 200-fold dilution, and the solution in each well was mixed with a vortex mixer, and the 96-well plate was incubated in a CO2 incubator (at 37° C. and 5% CO2) for 48±4 hours.
Luciferase Assay Substrate (hereinafter referred to as “LAS”) supplied in Luciferase Assay Systems (Promega: Cat #E1500) was dissolved in Luciferase Assay Buffer (LAB) to prepare a luciferase reagent. 5×Cell Culture Lysis Reagent (hereinafter referred to as “CCLR”) was diluted by 5 times with water to prepare 1×CCLR.
After the incubation for 48±4 hours, the medium in each well was completely removed, and 1×CCLR was dispensed into each well in an amount of 50 μL. The 96-well plate was allowed to stand at room temperature for 30 minutes, and then 1×CCLR in each well was used as an assay sample. The luciferase reagent (100 μL) was placed in a tube for chemiluminescence measurement, and the assay sample (20 μL) was added to the tube and mixed with the luciferase reagent to measure chemiluminescence (Relative Luminescence Intensity: RLU) using TB 20/20 (Promega) or GloMax 20/20 (Promega).
The RLU values of the control wells and the sample wells at each concentration were input into an Excel file, and the percentages of RLU values of the sample wells at each concentration to the average RLU value of the control wells were determined. From these values, a fitted curve was determined by the method of least squares to calculate EC50. Also, the percentages of RLU values of the sample wells at each concentration to the average RLU value of the control wells were divided by the percentages of absorbance values of the compounds in WST assay at the same concentrations as those of this assay (to the control), and a fitted curve was determined from the calculated values by the method of least squares to calculate corrected EC50.

[3] = Homo sapiens, A549, A549/OPNluc cells
[4] = Homo sapiens, A549, A549/OPNluc cells, 48±4 hours, read-out: EC50 (concentration for 50% inhibition of luciferase expression)
[5] = Homo sapiens, A549, EC50 corrected for decrease in viable cells (RLU % divided by WST %), read-out: corrected EC50

Structure (SMILES)	IC50 [1, 3] [µM]	EC50 [2, 4] [µM]	EC50 [2, 5] [µM]	IC50 ([1]; A549/OPNluc cells) [µM]	EC50 ([2]; A549/OPNluc cells, 48±4 hours, read-out: EC50 (concentration for 50% inhibition of luciferase expression)) [µM]	EC50 ([2]; EC50 corrected for decrease in viable cells (RLU % divided by WST %), read-out: corrected EC50) [µM]
O=C(CCNC(=O)c1ccsc1)Nc1cccc(Oc2ccc(Cl)cc2)c1 [Compound 36, N-(3-(3-(4-Chlorophenoxy)phenylamino)-3-oxopropyl)thiophene-3-carboxamide]	43.3	22	31.2	–	–	–
COc1ccc(Oc2ccc(NC(=O)CCNC(=O)c3ccc(O)cc3)cc2)cc1 [Compound 30, N-(3-(4-(4-methoxyphenoxy)phenylamino)-3-oxopropyl)-4-hydroxybenzamide]	52.3	7	12.6	–	–	–
COc1ccc(Oc2cccc(NC(=O)CCCNC(=O)c3ccc(O)cc3)c2)cc1 [Compound 27, N-(4-(3-(4-Methoxyphenoxy)phenylamino)-4-oxobuthyl)-4-hydroxybenzamide]	71.9	19.8	26.6	–	–	–
O=C(CCNC(=O)c1ccncc1)Nc1cccc(Oc2ccc(Cl)cc2)c1 [Compound 37, N-(3-(3-(4-Chlorophenoxy)phenylamino)-3-oxopropyl)pyridine-4-carboxamide]	60.1	15.6	20.9	–	–	–
COc1cccc(C(=O)CCNC(=O)c2ccc(O)cc2)c1N [Compound 12, N-(3-(2-Amino-3-methoxyphenyl)-3-oxopropyl)-4-hydroxybenzamide]	> 200	> 200	–	–	–	–
O=C(Nc1cccc(Oc2ccc(Cl)cc2)c1)C1CCCN1C(=O)c1ccc(O)cc1 (centres unmarked) [Compound 34, N-(3-(4-Chlorophenoxy)phenyl)-1-(4-hydroxyphenylcarbonyl)pyrrolidine-2-carboxamide]	55.1	24.9	32.9	–	–	–
O=C(CCC(=O)Nc1cccc(Oc2ccc(Cl)cc2)c1)Nc1ccc(O)cc1 [Compound 23, N-(4-Hydroxyphenyl)-4-(3-(4-chlorophenoxy)phenylamino)-4-oxobutanamide]	> 100	71.5	82.8	87.3	40.6	50.9
O=C(NCCC(=O)c1cccc(O)c1O)c1ccc(Oc2ccc(O)cc2)cc1 [Compound 3, N-(3-(2,3-Dihydroxyphenyl)-3-oxopropyl)-4-(4-hydroxyphenoxy)benzamide]	32.5	32.2	103	–	–	–
O=C(NCCc1c[nH]c2c(Oc3ccc(O)cc3)cccc12)c1ccc(O)cc1 [Compound 2, 4-Hydroxy-N-(2-(7-(4-hydroxyphenoxy)-1H-indol-3-yl)ethyl)benzamide]	51	26.8	60.3	–	–	–
COc1ccc(Oc2ccccc2NC(=O)CNC(=O)c2ccc(O)cc2)cc1 [Compound 28, N-(2-(2-(4-Methoxyphenoxy)phenylamino)-2-oxoethyl)-4-hydroxybenzamide]	> 100	41.5	53.7	–	–	–

From patent US11040937B2, “Amide derivative” (TOHOKU UNIVERSITY, priority 2014, dated 2021)
